Key:
human ACSS2 protein = molecular target: T1, human ACSS2 protein (Homo sapiens, UniProt Q9NR19); assay: ACSS2 cell-free activity assay (pyrophosphatase-coupled, Biomol green); conditions: 10 nM human ACSS2, 90 minutes at 37 C, absorbance at 620 nm; read-out: ACSS2 Biochemical IC50
T1 construct: purchased OriGene Technologies, Inc
Method: ACSS2 Cell-Free Activity Assay (Cell-Free IC50)
(§1) The assay is based on a coupling reaction with Pyrophosphatase: ACSS2 is converting ATP+CoA+Acetate=>AMP+pyrophosphate+Acetyl-CoA (Ac-CoA). Pyrophosphatase converts pyrophosphate, a product of the ACSS2 reaction, to phosphate which can be detected by measuring the absorbance at 620 nm after incubation with the Biomol green reagent (Enzo life Science, BML-AK111).
(§2) Cell Free IC50 Determination:
(§3) 10 nM of human ACSS2 protein (OriGene Technologies, Inc) was incubated for 90 minutes at 37 C with various compounds' concentrations in a reaction containing 50 mM Hepes pH 7.5, 10 mM DTT, 90 mM KCl, 0.006% Tween-20, 0.1 mg/ml BSA, 2 mM MgCl2, 10 μM CoA, 5 mM NaAc, 300 μM ATP and 0.5 U/ml Pyrophosphatase (Sigma). At the end of the reaction, Biomol Green was added for 30 minutes at RT and the activity was measured by reading the absorbance at 620 nm. IC50 values were calculated using non-linear regression curve fit with 0% and 100% constrains (CDD Vault, Collaborative Drug Discovery, Inc.).

human ACSS1 protein = molecular target: T2, human ACSS1 protein (Homo sapiens, UniProt Q9NUB1); assay: ACSS1 cell-free activity assay (pyrophosphatase-coupled, Biomol green); type: biochemical; conditions: 5 nM human ACSS1, 30 minutes at room temperature, absorbance at 620 nm
T2 construct: purchased MyBioSource
T2 sequence (Q9NUB1 38-689): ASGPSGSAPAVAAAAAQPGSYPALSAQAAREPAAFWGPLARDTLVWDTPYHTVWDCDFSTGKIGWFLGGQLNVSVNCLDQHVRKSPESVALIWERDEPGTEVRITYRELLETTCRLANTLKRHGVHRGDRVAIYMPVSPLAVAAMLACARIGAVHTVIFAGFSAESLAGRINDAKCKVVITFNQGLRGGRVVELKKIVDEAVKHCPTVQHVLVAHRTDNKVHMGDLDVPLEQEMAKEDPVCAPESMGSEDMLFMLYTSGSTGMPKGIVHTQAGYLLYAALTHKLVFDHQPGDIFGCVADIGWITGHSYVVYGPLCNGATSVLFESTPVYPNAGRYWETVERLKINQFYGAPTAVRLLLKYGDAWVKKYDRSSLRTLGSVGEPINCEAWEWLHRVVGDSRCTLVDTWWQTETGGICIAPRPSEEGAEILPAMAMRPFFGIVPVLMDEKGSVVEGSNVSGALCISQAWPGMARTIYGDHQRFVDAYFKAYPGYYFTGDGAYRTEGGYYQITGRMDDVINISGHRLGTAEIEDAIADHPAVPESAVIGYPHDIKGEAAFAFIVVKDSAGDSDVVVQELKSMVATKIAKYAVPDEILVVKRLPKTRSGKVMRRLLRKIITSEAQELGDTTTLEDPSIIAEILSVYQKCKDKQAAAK
Method: ACSS1 Cell-Free Activity Assay (Cell-Free IC50)
as §1, with “ACSS1” for “ACSS2”
as §2
as §3, with “5 nM” for “10 nM”, “human ACSS1” for “human ACSS2”, “protein (MyBioSource)” for “protein (OriGene Technologies, Inc)”, “for 30” for “for 90”, “at room temperature” for “at 37 C”, “MgCl2, 15” for “MgCl2, 10”

T1 sequence (Q9NR19 whole entry): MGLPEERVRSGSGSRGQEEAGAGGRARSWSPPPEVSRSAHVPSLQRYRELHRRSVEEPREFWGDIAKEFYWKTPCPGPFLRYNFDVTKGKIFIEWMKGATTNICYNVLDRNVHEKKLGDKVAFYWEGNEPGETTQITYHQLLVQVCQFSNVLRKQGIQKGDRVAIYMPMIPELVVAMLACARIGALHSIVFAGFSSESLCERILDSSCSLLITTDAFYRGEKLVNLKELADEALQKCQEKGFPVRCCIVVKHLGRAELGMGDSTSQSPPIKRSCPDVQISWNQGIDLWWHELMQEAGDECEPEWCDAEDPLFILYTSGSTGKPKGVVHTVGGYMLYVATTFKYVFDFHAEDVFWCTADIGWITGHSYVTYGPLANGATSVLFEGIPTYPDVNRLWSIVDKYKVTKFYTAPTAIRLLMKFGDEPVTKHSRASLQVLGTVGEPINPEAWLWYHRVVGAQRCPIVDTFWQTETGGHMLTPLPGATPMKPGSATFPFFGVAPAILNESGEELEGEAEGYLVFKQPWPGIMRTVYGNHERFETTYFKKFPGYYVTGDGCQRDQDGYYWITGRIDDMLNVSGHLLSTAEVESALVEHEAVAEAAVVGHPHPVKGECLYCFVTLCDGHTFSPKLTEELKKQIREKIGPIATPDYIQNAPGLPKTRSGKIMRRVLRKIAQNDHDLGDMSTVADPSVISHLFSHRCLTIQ

Row | IC50 (human ACSS2 protein) [nM] | ACSS1 Biochemical IC50 (nM) (human ACSS1 protein) | SMILES
1 | > 30 | Inactive | CCC(F)(F)c1cccc(NC(=O)c2c(C)[nH]c(-c3ccc(OC)c(-c4cccnn4)c3C)[n+]2[O-])c1 [Compound 122, 4-((3-(1,1-difluoropropyl)phenyl)carbamoyl)-2-(4-methoxy-2-methyl-3-(pyridazin-3-yl)phenyl)-5-methyl-1H-imidazole 3-oxide]
2 | 1 to 30 | Inactive | CCC(F)(F)c1cccc(NC(=O)c2c(C)[nH]c(-c3ccc(OC)c(-c4c(C(F)(F)F)cccc4C(F)(F)F)c3)[n+]2[O-])c1 [Compound 128, 4-((3-(1,1-difluoropropyl)phenyl)carbamoyl)-2-(6-methoxy-2′,6′-bis(trifluoromethyl)-[1,1′-biphenyl]-3-yl)-5-methyl-1H-imidazole 3-oxide]
3 | 1 to 30 | Inactive | Cc1cccc(C)c1-c1cc(-c2[nH]c(C)c(C(=O)Nc3cccc(C(F)(F)C4CC4)c3)[n+]2[O-])cc(C(C)C)c1 [Compound 134, 4-((3-(cyclopropyldifluoromethyl)phenyl)carbamoyl)-2-(5-isopropyl-2′,6′-dimethyl-[1,1′-biphenyl]-3-yl)-5-methyl-1H-imidazole 3-oxide]
4 | 1 to 30 | Inactive | Cc1cccc(C)c1-c1cc(Br)cc(-c2[nH]c(C)c(C(=O)Nc3cccc(C(F)(F)C4CC4)c3)[n+]2[O-])c1 [Compound 136, 2-[3-bromo-5-(2,6-dimethylphenyl)phenyl]-N-[3-[cyclopropyl(difluoro)methyl]phenyl]-5-methyl-3-oxido-1H-imidazol-3-ium-4-carboxamide]
5 | > 30 | Inactive | COc1ccc(-c2[nH]c(C)c(C(=O)Nc3cccc(C(=O)N4CCCCC4)c3)[n+]2[O-])cc1-c1c(C)cccc1C [Compound 139, 2-(6-methoxy-2′,6′-dimethyl-[1,1′-biphenyl]-3-yl)-5-methyl-4-((3-(piperidine-1-carbonyl)phenyl)carbamoyl)-1H-imidazole 3-oxide]
6 | 1 to 30 | Inactive | CCN(C)C(=O)c1cccc(NC(=O)c2c(C)[nH]c(-c3ccc(OC)c(-c4c(C)cccc4C)c3)[n+]2[O-])c1 [Compound 140, 4-((3-(ethyl(methyl)carbamoyl)phenyl)carbamoyl)-2-(6-methoxy-2′,6′-dimethyl-[1,1′-biphenyl]-3-yl)-5-methyl-1H-imidazole 3-oxide]
7 | > 30 | Inactive | CCC(F)(F)c1cccc(NC(=O)c2c(C)[nH]c(-c3ccc(OC)c(C4CCCCC4)c3)[n+]2[O-])c1 [Compound 145, 2-(3-cyclohexyl-4-methoxyphenyl)-4-((3-(1,1-difluoropropyl)phenyl)carbamoyl)-5-methyl-1H-imidazole 3-oxide]
8 | 1 to 30 | Inactive | CCC(F)(F)c1cccc(NC(=O)c2c(C)[nH]c(-c3ccc(OC)c(N4CCOCC4)c3)[n+]2[O-])c1 [Compound 150, 4-((3-(1,1-difluoropropyl)phenyl)carbamoyl)-2-(4-methoxy-3-morpholinophenyl)-5-methyl-1H-imidazole 3-oxide]

Further lines, the compound ahead of its results:

Row | SMILES | IC50 (human ACSS2 protein) [nM] | ACSS1 Biochemical IC50 (nM) (human ACSS1 protein)
9 | CCC(F)(F)c1cccc(NC(=O)c2c(C)[nH]c(-c3ccc(C(C)C)c(-c4c(C)cccc4C)c3)[n+]2[O-])c1 [Compound 117, 4-((3-(1,1-difluoropropyl)phenyl)carbamoyl)-2-(6-isopropyl-2′,6′-dimethyl-[1,1′-biphenyl]-3-yl)-5-methyl-1H-imidazole 3-oxide] | 1 to 30 | Inactive
10 | CCC(F)(F)c1cccc(NC(=O)c2c(C)[nH]c(-c3ccc(OC)c(-c4ncccn4)c3C)[n+]2[O-])c1 [Compound 118, 4-((3-(1,1-difluoropropyl)phenyl)carbamoyl)-2-(4-methoxy-2-methyl-3-(pyrimidin-2-yl)phenyl)-5-methyl-1H-imidazole 3-oxide] | > 30 | Inactive
11 | CCC(F)(F)c1cccc(NC(=O)c2c(C)[nH]c(-c3ccc(OC)c(-c4cnccn4)c3C)[n+]2[O-])c1 [Compound 127, 4-((3-(1,1-difluoropropyl)phenyl)carbamoyl)-2-(4-methoxy-2-methyl-3-(pyrazin-2-yl)phenyl)-5-methyl-1H-imidazole 3-oxide] | > 30 | Inactive
12 | CCC(F)(F)c1cccc(NC(=O)c2c(C)[nH]c(-c3cc(C)cc(-c4c(C)cccc4C)c3)[n+]2[O-])c1 [Compound 130, 4-((3-(1,1-difluoropropyl)phenyl)carbamoyl)-5-methyl-2-(2′,5,6′-trimethyl-[1,1′-biphenyl]-3-yl)-1H-imidazole 3-oxide] | 1 to 30 | 
13 | Cc1cccc(C)c1-c1cc(-c2c(C)cccc2C)cc(-c2[nH]c(C)c(C(=O)Nc3cccc(C(F)(F)C4CC4)c3)[n+]2[O-])c1 [Compound 132, 4-((3-(cyclopropyldifluoromethyl)phenyl)carbamoyl)-5-methyl-2-(2,2″,6,6″-tetramethyl-[1,1′:3′,1″-terphenyl]-5′-yl)-1H-imidazole 3-oxide] | 1 to 30 | Inactive
14 | Cc1cccc(C)c1-c1cc(-c2ccccc2)cc(-c2[nH]c(C)c(C(=O)Nc3cccc(C(F)(F)C4CC4)c3)[n+]2[O-])c1 [Compound 133, 4-((3-(cyclopropyldifluoromethyl)phenyl)carbamoyl)-2-(2,6-dimethyl-[1,1′:3′,1″-terphenyl]-5′-yl)-5-methyl-1H-imidazole 3-oxide] | 1 to 30 | Inactive
15 | COc1ccc(-c2[nH]c(C)c(C(=O)Nc3cccc(C(=O)N4CCCC4)c3)[n+]2[O-])cc1-c1c(C)cccc1C [Compound 138, 2-[3-(2,6-dimethylphenyl)-4-methoxy-phenyl]-5-methyl-3-oxido-N-[3-(pyrrolidine-1-carbonyl)phenyl]-1H-imidazol-3-ium-4-carboxamide] | > 30 | Inactive
16 | COCCN(C)C(=O)c1cccc(NC(=O)c2c(C)[nH]c(-c3ccc(OC)c(-c4c(C)cccc4C)c3)[n+]2[O-])c1 [Compound 141, 2-(6-methoxy-2′,6′-dimethyl-[1,1′-biphenyl]-3-yl)-4-((3-((2-methoxyethyl)(methyl)carbamoyl)phenyl)carbamoyl)-5-methyl-1H-imidazole 3-oxide] | > 30 | Inactive
17 | CCC(F)(F)c1cccc(NC(=O)c2c(C)[nH]c(-c3ccc(OC)c(-c4ccncn4)c3C)[n+]2[O-])c1 [Compound 144, 4-((3-(1,1-difluoropropyl)phenyl)carbamoyl)-2-(4-methoxy-2-methyl-3-(pyrimidin-4-yl)phenyl)-5-methyl-1H-imidazole 3-oxide] | > 30 | Inactive
18 | COc1ccc(-c2[nH]c(C)c(C(=O)Nc3cccc(C(=O)N4CCOCC4)c3)[n+]2[O-])cc1-c1c(C)cccc1C [Compound 148, 2-(6-methoxy-2′,6′-dimethyl-[1,1′-biphenyl]-3-yl)-5-methyl-4-((3-(morpholine-4-carbonyl)phenyl)carbamoyl)-1H-imidazole 3-oxide] | > 30 | Inactive
